# pIC50: −log10 of the molar value.
# Target: human recombinant Btk (Homo sapiens, UniProt Q06187)
# Assay: Btk Enzymatic Activity Assay (Caliper-based kinase assay)
# Format: biochemical
# Conditions: human recombinant Btk 2 nM, ATP 40 μM, peptide substrate 1 μM, room temperature, 3 h; read-out: IC50 (inhibition of Btk kinase activity)
# Description: A Caliper-based kinase assay (Caliper Life Sciences, Hopkinton, Mass.) was used to measure inhibition of Btk kinase activity of a compound of Formula (I). Serial dilutions of test compounds were incubated with human recombinant Btk (2 nM), ATP (40 μM) and a phosphoacceptor peptide substrate FAM-GEEPLYWSFPAKKK-NH2 (1 μM) at room temperature for 3 h. The reaction was then terminated with EDTA, final concentration 20 mM and the phosphorylated reaction product was quantified on a Caliper Desktop Profiler (Caliper LabChip 3000). Percent inhibition was calculated for each compound dilution and the concentration that produced 50% inhibition was calculated. This value is presented as the IC50.
# Chain of human recombinant Btk (Q06187 whole entry): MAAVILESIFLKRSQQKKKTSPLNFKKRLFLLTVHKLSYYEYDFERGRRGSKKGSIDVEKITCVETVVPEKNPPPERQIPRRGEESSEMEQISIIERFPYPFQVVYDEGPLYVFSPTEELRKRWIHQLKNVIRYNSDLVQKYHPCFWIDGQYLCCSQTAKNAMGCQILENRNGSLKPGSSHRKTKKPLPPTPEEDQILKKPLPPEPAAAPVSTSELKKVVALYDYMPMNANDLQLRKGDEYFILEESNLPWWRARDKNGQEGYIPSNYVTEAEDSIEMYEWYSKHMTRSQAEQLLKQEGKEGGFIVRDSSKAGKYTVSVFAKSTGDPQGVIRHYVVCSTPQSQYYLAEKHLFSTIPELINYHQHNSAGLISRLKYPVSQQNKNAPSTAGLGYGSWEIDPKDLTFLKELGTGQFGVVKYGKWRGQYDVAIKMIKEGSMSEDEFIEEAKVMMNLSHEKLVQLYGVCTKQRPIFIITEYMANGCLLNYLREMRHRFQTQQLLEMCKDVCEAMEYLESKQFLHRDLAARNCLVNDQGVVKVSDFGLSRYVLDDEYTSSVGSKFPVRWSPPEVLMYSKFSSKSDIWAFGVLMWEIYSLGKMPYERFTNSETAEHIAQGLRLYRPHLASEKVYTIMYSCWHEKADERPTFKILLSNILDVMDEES
row,SMILES,pIC50
1,"Nc1ncnc2c1c(-c1ccc(Oc3ccccc3)cc1)nn2C[C@H]1CCCN1C(=O)C(F)=CC1CC1 [Example 1, (R)-1-(2-((4-amino-3-(4-phenoxyphenyl)-1H-pyrazolo[3,4-d]pyrimidin-1-yl)methyl)pyrrolidin-1-yl)-3-cyclopropyl-2-fluoroprop-2-en-1-one]",6.69
2,"Nc1ncnc2c1c(-c1ccc(Oc3ccccc3)cc1)nn2C[C@H]1CCCN1C(=O)C(=CC1CC1)C(F)(F)F [Example 2, (R)-1-(2-((4-amino-3-(4-phenoxyphenyl)-1H-pyrazolo[3,4-d]pyrimidin-1-yl)methyl)pyrrolidin-1-yl)-3-cyclopropyl-2-(trifluoromethyl)prop-2-en-1-one]",7.39
3,"Nc1ncnc2c1c(-c1ccc(Oc3ccccc3)cc1)nn2CCCN1C(=O)SC(=CC2CC2)C1=O [Example 3, 3-(3-(4-amino-3-(4-phenoxyphenyl)-1H-pyrazolo[3,4-d]pyrimidin-1-yl)propyl)-5-(cyclopropylmethylene)thiazolidine-2,4-dione]",7.64
4,"Nc1ncnc2c1c(-c1ccc(Oc3ccccc3)cc1)nn2CCN1C(=O)SC(=Cc2ccccc2)C1=O [Example 4, 3-(2-(4-amino-3-(4-phenoxyphenyl)-1H-pyrazolo[3,4-d]pyrimidin-1-yl)ethyl)-5-benzylidenethiazolidine-2,4-dione]",6.07
5,"Nc1ncnc2c1c(-c1ccc(Oc3ccccc3)cc1)nn2CCN1C(=O)SC(=CC2CC2)C1=O [Example 5, 3-(2-(4-amino-3-(4-phenoxyphenyl)-1H-pyrazolo[3,4-d]pyrimidin-1-yl)ethyl)-5-(cyclopropylmethylene)thiazolidine-2,4-dione]",7.31

# Reference: US9376438B2, “Pyrazolopyrimidine derivatives as tyrosine kinase inhibitors” (Principia Biopharma, Inc., priority 2011, dated 2016)
